Results from patent US20010031469A1, “Methods for the detection of modified peptides, proteins and other molecules” (priority 2000, published 2001).

test system: HEK293 cell lysates after 5 minutes serum stimulation; test: Tagged substrates array: in vitro protein kinase reaction of the tagged peptide mix with cell lysate, sorted on tag array, anti-pTyr immunostaining; type: biochemical; settings: Hundred micrograms of total cell lysate, 30 minutes at 37 degree Celsius; anti-pTyr monoclonal antibody mix, Cy5 secondary, GenePix scanner
Experimental: EDC/NHS combined cross-linking was performed to tag the peptide or substrate which needs to be sorted. Coupling buffer contains no Tris and no phosphate. Peptides and oligonucleotides in equimolar ratios [50 μg/ml in 10 mM sodium acetate buffer (pH 5.0)] were reacted with a 1:1 mixture of N-hydroxysuccinimide NHS and 1 -ethyl-3 -(3 -dimethylaminopropyl) carbodiimide EDC for 2 hours. The excess active groups were then blocked with 1 M ethanolamine (pH 8.5).
Peptides. Phosphotyrosine-containing and non-phosphorylated peptides were synthesized, HPLC purified and checked by mass spectroscopy. Peptides were stored under nitrogen at -80 degree. Celsius. The synthesized peptides were as following, phosphotyrosine, AEPDpYGALYE PLCgamma, SAAPpYLKTK Stat3-705, DDPSpYVNVQ SHC-317, PDHQpYYNDF SHC-239, TDDGpYMPMS IRS 1-608, GNGDpYMPMS IRS 1-628, SPGEpYVNIE IRS 1-895, KSLNpYIDLD IRS 1-1172, DLSTpYASIN IRS1-1222; non-phosphorylated, AEPDYGALYE, SAAPYLKTK, DDPSYVNVQ and PDHQYYNDF SHC, KDGATMKTF Akt, RGRSRSAPPN BAD, GEGTYGVVYK p34cdc2, GAGTPAATDEK, DGFVLTRLLE beta spectrin, NSIMKCDIDI Gamma actin, PGIADRMQKE beta actin.
Amino modified oligonucleotides used as tags. The amino modifications can be used either for slides coupling or for peptide coupling, or for coupling to any reactive substrates which needs to be sorted onto the array. Oligonucleotides are chosen with similar Tm and hybridization properties. Oligonucleotides can be substituted by any pair of complementary nucleic acids or PNAs without affecting the sensitivity or completeness of the assay. The length and sequence of the nucleic acids or PNAs is also not important as long as strands complementarity results in hibridization specificity. Here it is described a test experiment with 18 pairs of oligonucleotides. […]
Slide Overlay. […] After triple washing in TBST, and then TBS, fluorescent complexes are detected by using a GenePix microarrays scanner. […]

Row | Sequence | phosphorylation of sorted tagged substrate (FIG. 10)
1 | AEPDYGALYE [Substrate S1] | moderately well phosphorylated
2 | PDHQYYNDF [Substrate S4] | strongly phosphorylated
3 | SAAPYLKTK [Substrate S2] | moderately well phosphorylated
